For the compound `C[P@@](c1nc2ccccc2nc1[P@](C)C(C)(C)C)C(C)(C)C` [Compound (a3), (R,R)-2,3-bis(tert-butylmethylphosphino)quinoxaline], the melting point fell in the range of 102 to 103 °C.

As a reminder, the melting point is the temperature of the solid-liquid transition.

The record behind these values is patent publication US11021500B2, “Process for preparing optically active 2,3-bisphosphino-substituted quinoxalines” (Nippon Chemical Industrial Co., Ltd., priority 2017, dated 2021).
